Test results reported in the supplement of paper PMC10307832.

Tests used:
Experiment in all cases: relative viability (nuclei count vs DMSO), 5 days (fraction); higher = more cells survive
Tipifarnib + Tozasertib = compound: Cn1cncc1[C@@](N)(c1ccc(Cl)cc1)c1ccc2c(c1)c(-c1cccc(Cl)c1)cc(=O)n2C [Tipifarnib] + Cc1cc(Nc2cc(N3CCN(C)CC3)nc(Sc3ccc(NC(=O)C4CC4)cc3)n2)n[nH]1 [Tozasertib] (partner 0.1 µM)
Method in brief: (§1)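 Lung cancer cell lines were pin-tool dosed in 1536-well plates on the day after seeding, with either a lone drug or a fixed anchor-drug dose plus five library-drug doses (not always all listed) in √10 steps. Nuclei were counted on 4× images after 5 days. Relative viability is the ratio of treated-well to vehicle-well nuclei counts, with each value a median of duplicate plates.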

Tipifarnib + Dasatinib = compound: Cn1cncc1[C@@](N)(c1ccc(Cl)cc1)c1ccc2c(c1)c(-c1cccc(Cl)c1)cc(=O)n2C [Tipifarnib] + Cc1nc(Nc2ncc(C(=O)Nc3c(C)cccc3Cl)s2)cc(N2CCN(CCO)CC2)n1 [Dasatinib] (partner 0.075 µM)
Method in brief: as §1

Tipifarnib + Luminespib = compound: Cn1cncc1[C@@](N)(c1ccc(Cl)cc1)c1ccc2c(c1)c(-c1cccc(Cl)c1)cc(=O)n2C [Tipifarnib] + CCNC(=O)c1noc(-c2cc(C(C)C)c(O)cc2O)c1-c1ccc(CN2CCOCC2)cc1 [Luminespib] (partner 0.01 µM)
Method in brief: as §1

Tipifarnib + Phenformin = compound: Cn1cncc1[C@@](N)(c1ccc(Cl)cc1)c1ccc2c(c1)c(-c1cccc(Cl)c1)cc(=O)n2C [Tipifarnib] + N=C(N)NC(=N)NCCc1ccccc1 [Phenformin] (partner 250 µM)
Method in brief: as §1

Tipifarnib + OSI-027 = compound: Cn1cncc1[C@@](N)(c1ccc(Cl)cc1)c1ccc2c(c1)c(-c1cccc(Cl)c1)cc(=O)n2C [Tipifarnib] + COc1cccc2cc(-c3nc([C@H]4CC[C@H](C(=O)O)CC4)n4ncnc(N)c34)[nH]c12 [OSI-027] (partner 0.5 µM)
Method in brief: as §1

Tipifarnib + Foretinib = compound: Cn1cncc1[C@@](N)(c1ccc(Cl)cc1)c1ccc2c(c1)c(-c1cccc(Cl)c1)cc(=O)n2C [Tipifarnib] + COc1cc2c(Oc3ccc(NC(=O)C4(C(=O)Nc5ccc(F)cc5)CC4)cc3F)ccnc2cc1OCCCN1CCOCC1 [Foretinib] (partner 0.25 µM)
Method in brief: as §1

Tipifarnib = compound: Cn1cncc1[C@@](N)(c1ccc(Cl)cc1)c1ccc2c(c1)c(-c1cccc(Cl)c1)cc(=O)n2C [Tipifarnib]
Method in brief: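 Five library-drug doses spaced by √10 were pinned onto vehicle-anchored 1536-well plates of lung cancer cell lines that had been kept overnight at 37 °C. Cells went 5 days without medium change, then were fixed, permeabilised and Hoechst-stained together, imaged at 4× and counted by MetaXpress. Viability is the ratio of treated-well to vehicle-well nuclei, taken as a median over plates. Plates required control CV below 25% and at least one doubling.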

Tipifarnib + Vorinostat = compound: Cn1cncc1[C@@](N)(c1ccc(Cl)cc1)c1ccc2c(c1)c(-c1cccc(Cl)c1)cc(=O)n2C [Tipifarnib] + O=C(CCCCCCC(=O)Nc1ccccc1)NO [Vorinostat] (partner 1 µM)
Method in brief: as §1

Tipifarnib + Pemetrexed = compound: Cn1cncc1[C@@](N)(c1ccc(Cl)cc1)c1ccc2c(c1)c(-c1cccc(Cl)c1)cc(=O)n2C [Tipifarnib] + Nc1nc2[nH]cc(CCc3ccc(C(=O)N[C@@H](CCC(=O)O)C(=O)O)cc3)c2c(=O)[nH]1 [Pemetrexed] (partner 0.2 µM)
Method in brief: as §1

Tipifarnib + AZD7762 = compound: Cn1cncc1[C@@](N)(c1ccc(Cl)cc1)c1ccc2c(c1)c(-c1cccc(Cl)c1)cc(=O)n2C [Tipifarnib] + NC(=O)Nc1cc(-c2cccc(F)c2)sc1C(=O)N[C@H]1CCCNC1 [AZD7762] (partner 0.2 µM)
Method in brief: as §1

Tipifarnib + Trametinib = compound: Cn1cncc1[C@@](N)(c1ccc(Cl)cc1)c1ccc2c(c1)c(-c1cccc(Cl)c1)cc(=O)n2C [Tipifarnib] + CC(=O)Nc1cccc(-n2c(=O)n(C3CC3)c(=O)c3c(Nc4ccc(I)cc4F)n(C)c(=O)c(C)c32)c1 [Trametinib] (partner 0.02 µM)
Method in brief: as §1

Tipifarnib + Decitabine = compound: Cn1cncc1[C@@](N)(c1ccc(Cl)cc1)c1ccc2c(c1)c(-c1cccc(Cl)c1)cc(=O)n2C [Tipifarnib] + Nc1ncn([C@H]2C[C@H](O)[C@@H](CO)O2)c(=O)n1 [Decitabine] (partner 2 µM)
Method in brief: as §1

Tipifarnib + Olaparib = compound: Cn1cncc1[C@@](N)(c1ccc(Cl)cc1)c1ccc2c(c1)c(-c1cccc(Cl)c1)cc(=O)n2C [Tipifarnib] + O=C(c1cc(Cc2n[nH]c(=O)c3ccccc23)ccc1F)N1CCN(C(=O)C2CC2)CC1 [Olaparib] (partner 8 µM)
Method in brief: as §1

Tipifarnib + Palbociclib = compound: Cn1cncc1[C@@](N)(c1ccc(Cl)cc1)c1ccc2c(c1)c(-c1cccc(Cl)c1)cc(=O)n2C [Tipifarnib] + CC(=O)c1c(C)c2cnc(Nc3ccc(N4CCNCC4)cn3)nc2n(C2CCCC2)c1=O [Palbociclib] (partner 0.5 µM)
Method in brief: as §1

NCI-H1623 was tested, and the relative viability (Tipifarnib + Tozasertib; first compound 0.01 µM) was 0.427, the relative viability (Tipifarnib + Tozasertib; first compound 0.03162 µM) was 0.39 and the relative viability (Tipifarnib + Tozasertib; first compound 0.1 µM) was 0.441. The relative viability (Tipifarnib + Tozasertib; first compound 0.3162 µM) was 0.413, the relative viability (Tipifarnib + Tozasertib; first compound 1 µM) was 0.368 and the relative viability (Tipifarnib + Dasatinib; first compound 0.01 µM) was 0.547. It also gave a relative viability (Tipifarnib + Dasatinib; first compound 0.03162 µM) of 0.493, a relative viability (Tipifarnib + Dasatinib; first compound 0.1 µM) of 0.551 and a relative viability (Tipifarnib + Dasatinib; first compound 0.3162 µM) of 0.583. For the same cell line, the relative viability (Tipifarnib + Dasatinib; first compound 1 µM) was 0.293, the relative viability (Tipifarnib + Luminespib; first compound 0.01 µM) was 0.647 and the relative viability (Tipifarnib + Luminespib; first compound 0.03162 µM) was 0.37. The relative viability (Tipifarnib + Luminespib; first compound 0.1 µM) was 0.411, the relative viability (Tipifarnib + Luminespib; first compound 0.3162 µM) was 0.412 and the relative viability (Tipifarnib + Luminespib; first compound 1 µM) was 0.325. The relative viability (Tipifarnib + Phenformin; first compound 0.01 µM) was 0.603, the relative viability (Tipifarnib + Phenformin; first compound 0.03162 µM) was 0.556 and the relative viability (Tipifarnib + Phenformin; first compound 0.1 µM) was 0.553. The relative viability (Tipifarnib + Phenformin; first compound 0.3162 µM) was 0.565, the relative viability (Tipifarnib + Phenformin; first compound 1 µM) was 0.374 and the relative viability (Tipifarnib + OSI-027; first compound 0.01 µM) was 0.4. It also gave a relative viability (Tipifarnib + OSI-027; first compound 0.03162 µM) of 0.426, a relative viability (Tipifarnib + OSI-027; first compound 0.1 µM) of 0.418 and a relative viability (Tipifarnib + OSI-027; first compound 0.3162 µM) of 0.361. For the same cell line, the relative viability (Tipifarnib + OSI-027; first compound 1 µM) was 0.319, the relative viability (Tipifarnib + Foretinib; first compound 0.01 µM) was 0.904 and the relative viability (Tipifarnib + Foretinib; first compound 0.03162 µM) was 0.954. It also gave a relative viability (Tipifarnib + Foretinib; first compound 0.1 µM) of 0.911, a relative viability (Tipifarnib + Foretinib; first compound 0.3162 µM) of 0.765 and a relative viability (Tipifarnib + Foretinib; first compound 1 µM) of 0.587. The relative viability (Tipifarnib; 0.01 µM) was 1.07, the relative viability (Tipifarnib; 0.03162 µM) was 1.12 and the relative viability (Tipifarnib; 0.1 µM) was 0.946. The relative viability (Tipifarnib; 0.3162 µM) was 0.886 and the relative viability (Tipifarnib; 1 µM) was 0.818.
Cell Line NCI-H2342 has a relative viability (Tipifarnib + Vorinostat; first compound 0.01 µM) of 0.847, a relative viability (Tipifarnib + Vorinostat; first compound 0.03162 µM) of 0.746 and a relative viability (Tipifarnib + Vorinostat; first compound 0.1 µM) of 0.597. The relative viability (Tipifarnib + Vorinostat; first compound 0.3162 µM) was 0.73, the relative viability (Tipifarnib + Vorinostat; first compound 1 µM) was 0.516 and the relative viability (Tipifarnib + Tozasertib; first compound 0.01 µM) was 0.472. For the same cell line, the relative viability (Tipifarnib + Tozasertib; first compound 0.03162 µM) was 0.476, the relative viability (Tipifarnib + Tozasertib; first compound 0.1 µM) was 0.43 and the relative viability (Tipifarnib + Tozasertib; first compound 0.3162 µM) was 0.371. The relative viability (Tipifarnib + Tozasertib; first compound 1 µM) was 0.383, the relative viability (Tipifarnib + Pemetrexed; first compound 0.01 µM) was 0.906 and the relative viability (Tipifarnib + Pemetrexed; first compound 0.03162 µM) was 0.776. For the same cell line, the relative viability (Tipifarnib + Pemetrexed; first compound 0.1 µM) was 0.71, the relative viability (Tipifarnib + Pemetrexed; first compound 0.3162 µM) was 0.64 and the relative viability (Tipifarnib + Pemetrexed; first compound 1 µM) was 0.509. The relative viability (Tipifarnib + AZD7762; first compound 0.01 µM) was 0.509, the relative viability (Tipifarnib + AZD7762; first compound 0.03162 µM) was 0.506 and the relative viability (Tipifarnib + AZD7762; first compound 0.1 µM) was 0.36. The relative viability (Tipifarnib + AZD7762; first compound 0.3162 µM) was 0.449, the relative viability (Tipifarnib + AZD7762; first compound 1 µM) was 0.39 and the relative viability (Tipifarnib + Trametinib; first compound 0.01 µM) was 0.778. It also gave a relative viability (Tipifarnib + Trametinib; first compound 0.03162 µM) of 0.968, a relative viability (Tipifarnib + Trametinib; first compound 0.1 µM) of 0.803 and a relative viability (Tipifarnib + Trametinib; first compound 0.3162 µM) of 0.547. It also gave a relative viability (Tipifarnib + Trametinib; first compound 1 µM) of 0.65, a relative viability (Tipifarnib + Decitabine; first compound 0.01 µM) of 0.778 and a relative viability (Tipifarnib + Decitabine; first compound 0.03162 µM) of 0.782. It also gave a relative viability (Tipifarnib + Decitabine; first compound 0.1 µM) of 0.683, a relative viability (Tipifarnib + Decitabine; first compound 0.3162 µM) of 0.555 and a relative viability (Tipifarnib + Decitabine; first compound 1 µM) of 0.557. For the same cell line, the relative viability (Tipifarnib + Dasatinib; first compound 0.01 µM) was 0.332, the relative viability (Tipifarnib + Dasatinib; first compound 0.03162 µM) was 0.337 and the relative viability (Tipifarnib + Dasatinib; first compound 0.1 µM) was 0.272. It also gave a relative viability (Tipifarnib + Dasatinib; first compound 0.3162 µM) of 0.331, a relative viability (Tipifarnib + Dasatinib; first compound 1 µM) of 0.267 and a relative viability (Tipifarnib + Luminespib; first compound 0.01 µM) of 0.689. The relative viability (Tipifarnib + Luminespib; first compound 0.03162 µM) was 0.669, the relative viability (Tipifarnib + Luminespib; first compound 0.1 µM) was 0.635 and the relative viability (Tipifarnib + Luminespib; first compound 0.3162 µM) was 0.569. It also gave a relative viability (Tipifarnib + Luminespib; first compound 1 µM) of 0.51, a relative viability (Tipifarnib + Phenformin; first compound 0.01 µM) of 0.676 and a relative viability (Tipifarnib + Phenformin; first compound 0.03162 µM) of 0.649. It also gave a relative viability (Tipifarnib + Phenformin; first compound 0.1 µM) of 0.491, a relative viability (Tipifarnib + Phenformin; first compound 0.3162 µM) of 0.487 and a relative viability (Tipifarnib + Phenformin; first compound 1 µM) of 0.399. For the same cell line, the relative viability (Tipifarnib + Olaparib; first compound 0.01 µM) was 0.536, the relative viability (Tipifarnib + Olaparib; first compound 0.03162 µM) was 0.463 and the relative viability (Tipifarnib + Olaparib; first compound 0.1 µM) was 0.425. It also gave a relative viability (Tipifarnib + Olaparib; first compound 0.3162 µM) of 0.371, a relative viability (Tipifarnib + Olaparib; first compound 1 µM) of 0.396 and a relative viability (Tipifarnib + OSI-027; first compound 0.01 µM) of 0.634. It also gave a relative viability (Tipifarnib + OSI-027; first compound 0.03162 µM) of 0.542, a relative viability (Tipifarnib + OSI-027; first compound 0.1 µM) of 0.631 and a relative viability (Tipifarnib + OSI-027; first compound 0.3162 µM) of 0.564. For the same cell line, the relative viability (Tipifarnib + OSI-027; first compound 1 µM) was 0.448, the relative viability (Tipifarnib + Palbociclib; first compound 0.01 µM) was 0.535 and the relative viability (Tipifarnib + Palbociclib; first compound 0.03162 µM) was 0.493. It also gave a relative viability (Tipifarnib + Palbociclib; first compound 0.1 µM) of 0.555, a relative viability (Tipifarnib + Palbociclib; first compound 0.3162 µM) of 0.499 and a relative viability (Tipifarnib + Palbociclib; first compound 1 µM) of 0.488. For the same cell line, the relative viability (Tipifarnib + Foretinib; first compound 0.01 µM) was 1.06, the relative viability (Tipifarnib + Foretinib; first compound 0.03162 µM) was 0.984 and the relative viability (Tipifarnib + Foretinib; first compound 0.1 µM) was 0.884. It also gave a relative viability (Tipifarnib + Foretinib; first compound 0.3162 µM) of 0.824, a relative viability (Tipifarnib + Foretinib; first compound 1 µM) of 0.771 and a relative viability (Tipifarnib; 0.01 µM) of 1.06. It also gave a relative viability (Tipifarnib; 0.03162 µM) of 0.984, a relative viability (Tipifarnib; 0.1 µM) of 0.749 and a relative viability (Tipifarnib; 0.3162 µM) of 0.807. For the same cell line, the relative viability (Tipifarnib; 1 µM) was 0.571.
